Data as given in US6653529B2, “Use of the maize X112 mutant ahas 2 gene and imidazolinone herbicides for selection of transgenic monocots, maize, rice and wheat plants resistant to the imidazolinone herbicides” (BASF Aktiengesellschaft, priority 2000, dated 2003).
Several values for one entry are separate records, joined by “and”; a condition that tells them apart may be missing. Identical values can stand only once.

What was measured:
Type in all cases: in vivo
transgenic rice Line 26 = assay: Response of rice plants to various herbicides, seed set in greenhouse; settings: post-emergence, 1× g ai/ha: PURSUIT 62.5, CADRE 32, ARSENAL 24, RAPTOR 32, SCEPTER 125, ACCENT 35, CLASSIC 5, AC322,140 20, LONDAX 68
Procedure, shortened: (§1)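 Greenhouse flats, 10 plants per cell; 9 herbicides (imidazolinones, rice herbicides, nicosulfuron, chlorimuron-ethyl) sprayed pre- or post-emergence at 1, 2, 4 and 6× rates, three replications. Fresh weight taken 32 days (pre) or 29 days (post, 5 plants/cell) after spraying; remaining plants grown to maturity for percentage filled-seed set.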

transgenic rice Line 29 = assay: as above; settings: post-emergence, 1× g ai/ha: PURSUIT 62.5, CADRE 32, ARSENAL 24, RAPTOR 32, SCEPTER 125, ACCENT 35, CLASSIC 5, AC322,140 20, LONDAX 68
Procedure, shortened: as §1

[1] = tested on: untransformed Nt rice plants; assay: as above; settings: post-emergence, 1× g ai/ha: PURSUIT 62.5, CADRE 32, ARSENAL 24, RAPTOR 32, SCEPTER 125, ACCENT 35, CLASSIC 5, AC322,140 20, LONDAX 68
Procedure, shortened: as §1

[2] = tested on: 3395IR (homozygous XA17 imi-resistant corn line); assay: Greenhouse spray test of corn lines with imidazolinone herbicides, injury score; settings: for Score, individual plants (0 dead plants, 5 healthy plants with no injury): 16 days after treatment; for M.S.: score 0 (dead) to 5 (healthy), 16 days
From the text: (§2) Grow one corn plant per pot (5×5 inch) in a 3×5 flat till three- to four-leaf stage (about 9 to 13 days depending on the weather). On the day of spraying, water the plants well and let excess water drip out. Spray plants on a belt-sprayer with the imidazolinone herbicides at desired rates. […] When temperature was too high, base water plants to prevent wilting. Closely observe the plants for the next two to three weeks. Symptoms of herbicide injury will be visible three days after spraying and susceptible plants will die within two to three weeks depending on temperature.
(§3) The plants were rated on a scale of 0-5 with 0 for dead plants and 5 for healthy plants with no or minimum injury.
(§4) Two transgenic hybrids BAa-4 and MAa-7 lines (see FIG. 5 for their pedigree), a non-transformed control line B×A (B73×A188), 8962IT (heterozygous XI12 imi-tolerant corn line), 8962 (wild type control) and 3395IR (homozygous XA17 imi-resistant corn line) (8962IT and 8962 were from ICI, now Garst Seed Company, Slater, Iowa 50244, and 3395IR was from Pioneer Hi-Bred International Inc, Iowa 50306-3453). Plants were sprayed with 4, 8, 16 or 20×PURSUIT® imazethapyr, ARSENAL® imazapyr, CADRE® imazameth or RAPTOR® imazamox. Plants were scored 0 to 5 (with 0 being dead plants, 5 being healthy plants with no injury) individually 16 days after herbicide treatments. […] For the four tested imidazolinones, transgenic plants could tolerate higher rates of ARSENAL® imazapyr, PURSUIT® imazethapyr, than CADRE® imazameth and RAPTOR® imazamox.

[3] = tested on: non-transformed control corn line BxA (B73×A188); assay: as above; settings: for Score, individual plants (0 dead plants, 5 healthy plants with no injury): 16 days after treatment; for M.S.: score 0 (dead) to 5 (healthy), 16 days
From the text: as §2, §3, §4

[4] = tested on: transgenic corn hybrid BAa-4; assay: as above; settings: BAa-4; for Score, individual plants (0 dead plants, 5 healthy plants with no injury): 16 days after treatment; for M.S.: score 0 (dead) to 5 (healthy), 16 days
From the text: as §2, §3, §4

[5] = tested on: transgenic corn hybrid MAa-7; assay: as above; settings: MAa-7; for Score, individual plants (0 dead plants, 5 healthy plants with no injury): 16 days after treatment; for M.S.: score 0 (dead) to 5 (healthy), 16 days
From the text: as §2, §3, §4

[6] = tested on: 8692IT (heterozygous XI12 imi-tolerant corn line); assay: as above; settings: for Score, individual plants (0 dead plants, 5 healthy plants with no injury): 16 days after treatment; for M.S.: score 0 (dead) to 5 (healthy), 16 days
[7] = 4×: PURSUIT 250, RAPTOR 160, ARSENAL 96, CADRE 400 g/ha
[8] = 8×: PURSUIT 500, RAPTOR 320, ARSENAL 192, CADRE 800 g/ha

CCc1cnc(C2=NC(C)(C(C)C)C(=O)N2)c(C(=O)O)c1 (stereo not drawn) [PURSUIT ®, imazethapyr]
% seed-set (transgenic rice Line 26; 1× rate): 91%
No. filled seeds/3 panicles (transgenic rice Line 26; 1× rate): 143
Total No. of kernels/3 panicles (transgenic rice Line 26; 1× rate): 157
% seed-set (transgenic rice Line 26; 2× rate): 86%
No. filled seeds/3 panicles (transgenic rice Line 26; 2× rate): 133
Total No. of kernels/3 panicles (transgenic rice Line 26; 2× rate): 155
% seed-set (transgenic rice Line 26; 4× rate): 89%
No. filled seeds/3 panicles (transgenic rice Line 26; 4× rate): 152
Total No. of kernels/3 panicles (transgenic rice Line 26; 4× rate): 172
% seed-set (transgenic rice Line 26; 6× rate): 77%
No. filled seeds/3 panicles (transgenic rice Line 26; 6× rate): 107
Total No. of kernels/3 panicles (transgenic rice Line 26; 6× rate): 138
% seed-set (transgenic rice Line 29; 1× rate): 85%
No. filled seeds/3 panicles (transgenic rice Line 29; 1× rate): 125
Total No. of kernels/3 panicles (transgenic rice Line 29; 1× rate): 146
% seed-set (transgenic rice Line 29; 2× rate): 88%
No. filled seeds/3 panicles (transgenic rice Line 29; 2× rate): 136
Total No. of kernels/3 panicles (transgenic rice Line 29; 2× rate): 155
% seed-set (transgenic rice Line 29; 4× rate): 88%
No. filled seeds/3 panicles (transgenic rice Line 29; 4× rate): 138
Total No. of kernels/3 panicles (transgenic rice Line 29; 4× rate): 156
% seed-set (transgenic rice Line 29; 6× rate): 87%
No. filled seeds/3 panicles (transgenic rice Line 29; 6× rate): 141
Total No. of kernels/3 panicles (transgenic rice Line 29; 6× rate): 160
% seed-set ([1]; 1× rate): 35%
No. filled seeds/3 panicles ([1]; 1× rate): 38
Total No. of kernels/3 panicles ([1]; 1× rate): 47
% seed-set ([1]; 2× rate): 0%
No. filled seeds/3 panicles ([1]; 2× rate): 0
Total No. of kernels/3 panicles ([1]; 2× rate): 0
% seed-set ([1]; 4× rate): 10%
No. filled seeds/3 panicles ([1]; 4× rate): 19
Total No. of kernels/3 panicles ([1]; 4× rate): 21
% seed-set ([1]; 6× rate): 0%
No. filled seeds/3 panicles ([1]; 6× rate): 0
Total No. of kernels/3 panicles ([1]; 6× rate): 0
Score, individual plants (0 dead plants, 5 healthy plants with no injury) [2, 7]: 5
M.S. [2, 7]: 5
Score, individual plants (0 dead plants, 5 healthy plants with no injury) [2, 8]: 5
M.S. [2, 8]: 5
Score, individual plants (0 dead plants, 5 healthy plants with no injury) ([2]; 20×: PURSUIT 1.25 kg/ha): 5
M.S. ([2]; 20×: PURSUIT 1.25 kg/ha): 5
Score, individual plants (0 dead plants, 5 healthy plants with no injury) [3, 7]: 0
M.S. [3, 7]: 0
Score, individual plants (0 dead plants, 5 healthy plants with no injury) [3, 8]: 0
M.S. [3, 8]: 0
Score, individual plants (0 dead plants, 5 healthy plants with no injury) ([3]; 20×: PURSUIT 1.25 kg/ha): 0
M.S. ([3]; 20×: PURSUIT 1.25 kg/ha): 0
Score, individual plants (0 dead plants, 5 healthy plants with no injury) [4, 7]: 5
M.S. [4, 7]: 5
Score, individual plants (0 dead plants, 5 healthy plants with no injury) [4, 8]: 5
M.S. [4, 8]: 5
Score, individual plants (0 dead plants, 5 healthy plants with no injury) ([4]; 20×: PURSUIT 1.25 kg/ha): 4 (3×) and 3 and 2
M.S. ([4]; 20×: PURSUIT 1.25 kg/ha): 3.4
Score, individual plants (0 dead plants, 5 healthy plants with no injury) [5, 7]: 5
M.S. [5, 7]: 5
Score, individual plants (0 dead plants, 5 healthy plants with no injury) [5, 8]: 5
M.S. [5, 8]: 5
Score, individual plants (0 dead plants, 5 healthy plants with no injury) ([5]; 20×: PURSUIT 1.25 kg/ha): 0 and 3 and 2 (2×) and 4
M.S. ([5]; 20×: PURSUIT 1.25 kg/ha): 2.2
Score, individual plants (0 dead plants, 5 healthy plants with no injury) [6, 7]: 5
M.S. [6, 7]: 5
Score, individual plants (0 dead plants, 5 healthy plants with no injury) [6, 8]: 5 (4×) and 4
M.S. [6, 8]: 4.8
Score, individual plants (0 dead plants, 5 healthy plants with no injury) ([6]; 20×: PURSUIT 1.25 kg/ha): 4 (4×) and 3
M.S. ([6]; 20×: PURSUIT 1.25 kg/ha): 3.8
